What was measured:
Assay in all cases: relative viability (nuclei count vs DMSO), 5 days (fraction); higher = more cells survive
[1] = compound: C1=CC=C2C(=C1)N=C(S2)C(C#N)C3=NC(=NC=C3)NCCC4=CN=CC=C4 + O=C(CCCCCCC(=O)Nc1ccccc1)NO [Vorinostat] (partner 1 µM)
Method in brief: (§1)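 Each reported value is a median over duplicate plates. It expresses relative viability: treated-well nuclei count divided by vehicle-well nuclei count. Lung cancer cell lines in 1536-well plates were dosed by pin tool a day after seeding, alone with one drug or with a fixed anchor-drug dose plus five library-drug doses (not always all listed) in √10 steps, and nuclei were counted after 5 days.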

Vandetanib + Phenformin = compound: COc1cc2/c(=N/c3ccc(Br)cc3F)nc[nH]c2cc1OCC1CCN(C)CC1 [Vandetanib] + N=C(N)NC(=N)NCCc1ccccc1 [Phenformin] (partner 250 µM)
Method in brief: as §1

Vandetanib + Foretinib = compound: COc1cc2/c(=N/c3ccc(Br)cc3F)nc[nH]c2cc1OCC1CCN(C)CC1 [Vandetanib] + COc1cc2c(Oc3ccc(NC(=O)C4(C(=O)Nc5ccc(F)cc5)CC4)cc3F)ccnc2cc1OCCCN1CCOCC1 [Foretinib] (partner 0.25 µM)
Method in brief: as §1

CUDC-101 + Foretinib = compound: C#Cc1cccc(Nc2ncnc3cc(OC)c(OCCCCCCC(=O)NO)cc23)c1 [CUDC-101] + COc1cc2c(Oc3ccc(NC(=O)C4(C(=O)Nc5ccc(F)cc5)CC4)cc3F)ccnc2cc1OCCCN1CCOCC1 [Foretinib] (partner 0.25 µM)
Method in brief: as §1

Cell Line	relative viability ([1]; first compound 0.01581 µM)	relative viability ([1]; first compound 0.05 µM)	relative viability ([1]; first compound 0.1581 µM)	relative viability ([1]; first compound 0.5 µM)	relative viability (Vandetanib + Phenformin; first compound 0.02 µM)	relative viability (Vandetanib + Phenformin; first compound 0.06325 µM)	relative viability (Vandetanib + Phenformin; first compound 0.2 µM)	relative viability (Vandetanib + Phenformin; first compound 0.6325 µM)	relative viability (Vandetanib + Phenformin; first compound 2 µM)	relative viability (Vandetanib + Foretinib; first compound 0.02 µM)	relative viability (Vandetanib + Foretinib; first compound 0.06325 µM)	relative viability (Vandetanib + Foretinib; first compound 0.2 µM)	relative viability (Vandetanib + Foretinib; first compound 0.6325 µM)	relative viability (Vandetanib + Foretinib; first compound 2 µM)	relative viability (CUDC-101 + Foretinib; first compound 0.01 µM)	relative viability (CUDC-101 + Foretinib; first compound 0.03162 µM)	relative viability (CUDC-101 + Foretinib; first compound 0.1 µM)	relative viability (CUDC-101 + Foretinib; first compound 0.3162 µM)	relative viability (CUDC-101 + Foretinib; first compound 1 µM)	relative viability ([1]; first compound 0.005 µM)
NCI-H23	0.504	0.529	0.804	0.627	0.763	0.733	0.8	0.777	0.742	0.917	1	0.304	0.947	0.898	1.06	1	1.04	1.06	0.949	–
NCI-H322M	0.842	0.789	0.9	0.935	0.7	0.731	0.852	0.622	0.493	0.983	0.889	0.959	0.841	0.674	0.833	0.706	0.834	0.703	0.503	0.771
NCI-H358	0.642	0.557	0.708	0.558	0.295	0.275	0.265	0.217	0.26	0.657	0.716	0.649	0.646	0.332	0.815	0.565	0.759	0.675	0.179	0.568
NCI-H441	0.84	0.818	0.789	0.643	0.849	0.783	0.898	0.916	0.717	1.05	0.816	0.264	0.978	1.01	0.976	1.23	1.05	0.978	0.937	0.587
NCI-H460	0.651	0.721	0.782	0.354	0.498	0.48	0.544	0.49	0.48	0.934	0.992	0.952	0.953	0.997	0.991	0.917	1.02	1.03	0.93	–
NCI-H520	0.858	0.667	0.826	0.707	0.563	0.58	0.481	0.518	0.548	0.623	0.682	0.194	0.754	0.806	0.961	0.746	0.804	0.752	0.509	0.532
NCI-H596	0.446	0.716	0.654	0.676	0.917	0.623	0.698	0.747	0.698	0.918	0.785	0.741	0.838	0.731	0.862	0.902	0.787	0.752	0.729	0.463
NCI-H647	0.553	0.411	0.661	0.605	0.524	0.51	0.412	0.513	0.501	1.17	1.2	0.259	1.35	1.21	1.16	1.11	1.14	1.21	0.877	0.427
NCI-H650	0.392	0.499	0.488	0.393	0.464	0.448	–	0.472	0.364	1.04	1.03	–	1.02	0.98	1.07	1.01	1.03	1.15	0.801	0.389
NCI-H661	0.85	0.73	0.831	0.862	0.265	0.284	0.269	0.279	0.271	0.972	0.997	0.999	1.07	0.847	1.06	0.861	1.05	0.98	0.536	0.81
NCI-H727	1.08	1.1	1.38	1.37	0.565	0.468	0.712	0.283	0.448	0.973	0.831	0.539	1.18	0.674	0.975	0.85	0.685	0.778	0.424	1.38
NCI-H838	0.747	0.661	0.707	0.681	0.533	0.579	0.617	0.542	0.646	1.08	1.01	0.282	1.06	1.05	1.04	1.02	1.08	1.23	0.862	0.751
NCI-H1355	0.625	0.649	0.67	0.564	0.436	0.461	0.431	0.448	0.406	0.94	0.981	1	0.936	0.946	1.08	1.01	1.03	1.07	0.821	0.596
NCI-H1395	–	0.707	0.788	0.611	0.472	0.429	0.427	0.439	0.458	0.969	1.02	1.02	0.972	0.998	1.05	0.846	1.01	1.09	0.844	0.556
NCI-H1437	0.871	0.813	0.824	0.755	0.271	0.3	0.345	0.272	0.299	1.26	1.25	0.271	1.35	1.19	1.38	1.08	1.27	1.38	1.27	0.896
NCI-H1650	0.597	0.535	0.676	0.439	0.409	0.332	0.251	0.329	0.321	1.28	0.693	0.224	0.753	0.641	1.09	0.615	0.976	0.905	0.59	0.472

Cell Line	relative viability ([1]; first compound 0.01581 µM)	relative viability ([1]; first compound 0.05 µM)	relative viability ([1]; first compound 0.1581 µM)	relative viability ([1]; first compound 0.5 µM)	relative viability (Vandetanib + Phenformin; first compound 0.02 µM)	relative viability (Vandetanib + Phenformin; first compound 0.06325 µM)	relative viability (Vandetanib + Phenformin; first compound 0.2 µM)	relative viability (Vandetanib + Phenformin; first compound 0.6325 µM)	relative viability (Vandetanib + Phenformin; first compound 2 µM)	relative viability (Vandetanib + Foretinib; first compound 0.02 µM)	relative viability (Vandetanib + Foretinib; first compound 0.06325 µM)	relative viability (Vandetanib + Foretinib; first compound 0.2 µM)	relative viability (Vandetanib + Foretinib; first compound 0.6325 µM)	relative viability (Vandetanib + Foretinib; first compound 2 µM)	relative viability (CUDC-101 + Foretinib; first compound 0.01 µM)	relative viability (CUDC-101 + Foretinib; first compound 0.03162 µM)	relative viability (CUDC-101 + Foretinib; first compound 0.1 µM)	relative viability (CUDC-101 + Foretinib; first compound 0.3162 µM)	relative viability (CUDC-101 + Foretinib; first compound 1 µM)	relative viability ([1]; first compound 0.005 µM)
NCI-H1651	0.538	0.572	0.609	0.559	0.304	0.299	0.325	0.353	0.311	0.938	0.721	0.13	0.786	0.708	0.821	0.741	1.07	0.82	0.609	0.555
NCI-H1666	0.922	1.07	1.04	1	0.541	0.559	0.585	0.586	0.562	0.908	0.947	0.439	0.93	0.786	0.958	0.979	1	1.06	0.932	0.959
NCI-H1734	0.785	0.758	1.06	0.78	0.403	0.369	0.32	0.379	0.39	0.825	0.913	0.169	0.903	0.771	0.968	0.775	0.863	0.898	0.451	0.7
NCI-H1755	0.88	0.74	0.91	0.713	0.67	0.593	0.671	0.38	0.609	0.9	0.884	0.9	0.956	0.868	0.899	0.905	0.99	1.01	0.903	0.803
NCI-H1793	0.465	0.713	0.829	0.811	0.371	0.355	0.328	0.299	0.292	0.605	0.606	0.406	0.648	0.41	0.669	0.449	0.628	0.5	0.403	–
NCI-H1915	0.515	0.519	0.519	0.512	0.366	0.353	0.387	0.372	0.365	1.08	1.11	1.11	1.08	1.06	1.09	1.04	1.08	1.09	0.707	–
NCI-H1944	0.521	0.537	0.558	0.52	0.205	0.195	0.209	0.168	0.188	0.895	0.887	0.904	0.813	0.783	0.931	0.691	0.861	0.612	0.397	0.638
NCI-H1975	0.743	0.747	0.834	0.571	0.391	0.398	0.391	0.389	0.403	0.908	0.901	0.136	0.842	0.912	0.856	1.03	0.99	1.04	0.808	0.712
NCI-H1993	0.717	0.638	0.837	0.501	0.523	0.506	0.554	0.605	0.53	0.836	0.78	0.557	0.788	0.64	0.862	0.791	0.839	0.734	0.612	0.66
NCI-H2009	0.677	0.729	0.735	0.738	0.495	0.462	0.416	0.443	0.361	1.26	1.14	0.197	1.27	1.22	1.2	1.18	1.36	1.28	1.14	0.727
NCI-H2023	1.09	0.454	0.763	0.607	0.399	0.402	0.354	0.323	0.328	0.852	0.824	0.0955	0.591	0.431	0.759	0.672	0.836	0.764	0.615	0.566
NCI-H2085	0.737	0.781	0.826	0.903	0.769	0.674	0.649	0.668	0.595	0.935	0.852	0.351	0.993	0.836	0.964	0.929	0.823	0.996	0.697	0.726
NCI-H2087	0.666	0.353	1	0.435	0.415	0.45	0.457	0.447	0.44	1.15	0.886	0.181	1.38	1.11	1.33	1.03	1.08	1.04	0.664	0.338
NCI-H2126	0.75	0.701	0.855	0.647	0.541	0.5	0.522	0.495	0.49	1.17	1.16	1.11	1.14	1.11	1.25	0.971	1.08	1.26	1.01	0.637
NCI-H2170	0.86	0.777	0.887	0.877	0.342	0.402	0.415	0.409	0.357	1.04	0.57	1.06	0.978	1.03	0.978	0.973	1.05	0.995	0.903	0.756
NCI-H2228	0.629	0.83	0.646	0.664	0.263	0.281	0.384	0.294	0.303	0.92	0.625	0.167	0.803	0.822	0.763	0.939	1.11	0.964	0.719	0.449

Reference: the supplement of paper PMC10307832
